Measured values as given in patent US11059824B2, “Substituted purines as TLR7 agonists” (Primmune Therapeutics, Inc., priority 2018, dated 2021).
Where “and” joins values, the source holds several entries; their conditions need not be identical. Identical values can stand only once. Marks after values point to notes of the source that are not given here.

Experiments:
human TLR7 = human TLR7 (Homo sapiens (Human), UniProt Q9NYK1); experiment: TLR7 reporter assay (HEK293-TLR-NF-κB inducible SEAP reporter); type: cell-based; conditions: HEK293 cells stably expressing human TLR7 with NF-κB-driven SEAP reporter; 15-24 hours
Description: (§1) The engagement of TLRs by cognate ligands triggers downstream signaling cascades, leading to the activation of NF-κB and other transcription factors which initiate various immunomodulatory effects. The human embryonic kidney cell line, HEK293, is essentially non-responsive to TLR agonists, but ectopic expression of TLRs in these cells allows cognate agonists to activate endogenous NF-κB. Accordingly, the HEK293-TLR-NF-κB inducible reporter system is used to assay TLR agonists. HEK293 cell lines stably expressing human TLR7 or TLR8 together with an NF-κB-driven-secreted alkaline phosphatase (SEAP) reporter were invented at InvivoGen (San Diego, Calif., USA) and used to assess compounds of the present invention for TLR7 and TLR8 agonist activities. Cells were seeded at 2-5×10^4 cells/well in 96 well plates ([…]) and treated with various concentrations of compound (10 μl) for 15-24 hours. SEAP activity was determined by measuring OD at 650 nm; the media used to culture the cell lines contains the reagents required for SEAP detection. The EC50 values in Table 2 are calculated from fitting the dose response of measured SEAP activity for each compound to the following equation: Y=ymax*c^nh/(EC50^nh+c^nh)+blank where Y is the experimentally measured OD650 at concentration c of test article, blank is the observed OD650 in the absence of TLR7 agonist, ymax is the difference between the measured OD650 in the presence of either 28.5 μM resiquimod or 1.675 μM CL307 and the blank and values of EC50 and nh are determined by nonlinear least squares analysis.

[1] = system: interferon-α production in hPBMCs; experiment: Induction of interferon-α production in hPBMCs; type: cell-based, human; conditions: interferon-α production from hPBMCs; for Weighted MEC: geometric mean of all individual MECs across all donors, 24 hours; for individual MEC values: per donor
Protocol: Treatment of hPBMCs with a TLR7 agonist typically induces substantial production of interferon-α as well as lesser amounts of a variety of other cytokines and chemokines. A typical experiment uses hPBMCs isolated from a healthy donor and placed in replicate cell culture wells; typically 1.0-7.5×10^6 cells are placed in each well. Test compound is added and the cells cultured for 24 hours at 37° C. in a humidified atmosphere containing 5% CO2 post-addition; untreated controls are included. Secreted interferon-α production is measured using an a multisubtype interferon-α ELISA kit like those from PBL Assay Sciences or specifically as IFNα2a as part of a panel of cytokines and chemokines using luminex methodologies. The minimal effective concentration (MEC) is the minimum concentration in a dose response curve where a significant increase in interferon-α production (generally at least 20 pg/ml) is observed above baseline. MEC values for each compound are determined for at least three donors. The weighted MEC for each compound is the geometric mean of all individual MECs across all donors. Concentrations tested typically consist of a two-fold dilution series starting at 100 μM. In the calculation of weighted MEC, any value >100 μM is arbitrarily set to 200 μM unless all MECs for a compound exceed 100 μM

[2] = Oral bioavailability in cynomolgus monkeys; type: in vivo; conditions: vs loxoribine administered orally as itself or as prodrugs
Protocol: From two to four male or female cynomolgus monkeys were used for animal testing studies. The study compounds were formulated in a vehicle (e.g. 50 mM Phosphate Buffered Saline, pH 7.4) appropriate for animal oral or intravenous administration. Parent compounds 1, 5, 26 and 27 were administered at 1 mg/kg by IV administration whereas prodrugs of the corresponding compounds were administered at 2 mg/kg. After dosing, 0.5 mL blood samples were collected typically at 0.083, 0.33, 1, 2, 4, 6, 8, 12 and 24 hours post-dosing (iv administration) or 0.25, 0.5, 1, 2, 4, 6, 8, 12 and 24 hours post-dosing (oral administration). Plasma was separated from blood and analyzed for the active agonists by well-known LC-MS techniques. […] Percent bioavailability (F %) of compounds when administered orally as prodrug was calculated from the ratio of dose-normalized AUC of parent from oral prodrug administration to that of dose-normalized parent AUC from IV parent administration and reported in Table 4.

human TLR8 = human TLR8 (Homo sapiens (Human), UniProt Q9NR97); experiment: TLR8 reporter cell assay (HEK293-TLR-NF-κB inducible SEAP reporter); type: cell-based; conditions: incubation with resiquimod
Description: as §1, with “The EC50 values in Table 2 are calculated from fitting the dose response of measured SEAP activity for each compound to the following equation: Y=ymax*c^nh/(EC50^nh+c^nh)+blank where Y is the experimentally measured OD650 at concentration c of test article, blank is the observed OD650 in the absence of TLR7 agonist, ymax is the difference between the measured OD650 in the presence of either 28.5 μM resiquimod or 1.675 μM CL307 and the blank and values of EC50 and nh are determined by nonlinear least squares analysis.” left out

[3] = system: B16-F10 rodent melanoma tumor cells; experiment: Antitumor activity in rodent model (B16-F10 syngenic); type: in vivo, mice; conditions: IV by tail vein, 10 total doses, two weeks after randomization
Protocol: B16-F10 rodent melanoma tumor cells were injected into the flank of 32 mice in a syngenic model. […] Administration of the drugs was initiated on the following day. Tumor volumes were monitored for two weeks.

[4] = cynomolgus monkeys, from Table 23 of U.S. Pat. No. 7,575,068 B2, cited from earlier work; for % F (percent bioavailability of loxoribine administered as prodrug): oral prodrug of loxoribine

human TLR7, sequence (Q9NYK1 27-1049): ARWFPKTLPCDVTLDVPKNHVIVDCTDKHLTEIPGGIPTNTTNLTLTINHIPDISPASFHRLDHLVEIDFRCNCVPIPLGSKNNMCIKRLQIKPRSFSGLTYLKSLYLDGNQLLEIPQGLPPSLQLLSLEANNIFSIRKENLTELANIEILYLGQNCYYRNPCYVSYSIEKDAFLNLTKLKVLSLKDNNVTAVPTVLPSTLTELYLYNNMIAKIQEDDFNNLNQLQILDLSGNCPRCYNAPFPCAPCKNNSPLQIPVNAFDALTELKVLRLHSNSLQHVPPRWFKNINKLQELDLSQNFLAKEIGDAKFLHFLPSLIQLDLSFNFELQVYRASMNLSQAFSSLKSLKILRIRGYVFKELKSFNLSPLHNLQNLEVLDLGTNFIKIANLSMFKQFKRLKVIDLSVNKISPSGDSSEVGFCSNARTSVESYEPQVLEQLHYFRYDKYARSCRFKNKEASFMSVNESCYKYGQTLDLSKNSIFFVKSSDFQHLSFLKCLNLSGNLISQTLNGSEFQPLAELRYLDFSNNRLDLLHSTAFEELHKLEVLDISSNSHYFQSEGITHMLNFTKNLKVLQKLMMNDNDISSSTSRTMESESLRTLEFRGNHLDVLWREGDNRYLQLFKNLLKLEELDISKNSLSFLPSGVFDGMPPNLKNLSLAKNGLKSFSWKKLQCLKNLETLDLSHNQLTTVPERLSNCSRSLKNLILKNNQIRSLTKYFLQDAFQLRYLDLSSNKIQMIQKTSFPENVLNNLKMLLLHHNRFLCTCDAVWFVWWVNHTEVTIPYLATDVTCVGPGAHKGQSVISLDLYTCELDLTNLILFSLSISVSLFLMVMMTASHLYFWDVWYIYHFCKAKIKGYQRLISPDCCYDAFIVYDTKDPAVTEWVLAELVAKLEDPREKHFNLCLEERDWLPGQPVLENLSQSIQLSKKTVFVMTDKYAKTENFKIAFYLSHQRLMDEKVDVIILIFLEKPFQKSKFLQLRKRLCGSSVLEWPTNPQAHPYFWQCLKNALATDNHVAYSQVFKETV
human TLR8, sequence (Q9NR97 27-1041): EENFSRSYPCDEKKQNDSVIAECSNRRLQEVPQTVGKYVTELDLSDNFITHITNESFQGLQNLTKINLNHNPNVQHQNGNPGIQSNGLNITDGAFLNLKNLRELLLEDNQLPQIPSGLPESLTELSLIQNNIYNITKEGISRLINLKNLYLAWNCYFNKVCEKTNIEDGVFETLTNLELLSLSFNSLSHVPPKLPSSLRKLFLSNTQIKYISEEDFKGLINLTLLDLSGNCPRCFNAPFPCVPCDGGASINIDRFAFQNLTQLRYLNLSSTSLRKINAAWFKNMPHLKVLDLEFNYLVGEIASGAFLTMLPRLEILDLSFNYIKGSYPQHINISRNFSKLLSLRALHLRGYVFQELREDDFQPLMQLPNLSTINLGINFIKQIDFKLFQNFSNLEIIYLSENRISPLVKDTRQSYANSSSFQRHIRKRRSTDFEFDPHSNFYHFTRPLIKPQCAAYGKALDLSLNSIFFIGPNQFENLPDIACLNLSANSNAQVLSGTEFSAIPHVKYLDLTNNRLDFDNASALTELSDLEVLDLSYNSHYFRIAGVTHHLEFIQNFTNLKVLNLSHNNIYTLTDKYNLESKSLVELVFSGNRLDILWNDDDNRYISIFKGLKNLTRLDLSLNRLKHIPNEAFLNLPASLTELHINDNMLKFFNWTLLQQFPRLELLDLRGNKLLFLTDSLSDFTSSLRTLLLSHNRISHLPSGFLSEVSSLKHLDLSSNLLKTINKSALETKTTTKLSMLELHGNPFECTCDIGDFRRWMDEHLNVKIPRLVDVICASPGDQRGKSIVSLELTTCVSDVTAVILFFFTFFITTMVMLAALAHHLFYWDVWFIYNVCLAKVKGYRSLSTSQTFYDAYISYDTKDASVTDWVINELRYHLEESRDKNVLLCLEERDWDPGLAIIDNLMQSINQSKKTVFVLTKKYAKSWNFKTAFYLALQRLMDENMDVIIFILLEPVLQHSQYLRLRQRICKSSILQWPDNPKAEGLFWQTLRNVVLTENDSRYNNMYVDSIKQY

| SMILES | EC50 (human TLR7) [µM] | Weighted MEC [1] | individual MEC values [1] [µM] | also measured |
| --- | --- | --- | --- | --- |
| C#CCn1c(=O)n([C@@H]2O[C@H](CO)[C@@H](F)[C@H]2O)c2nc(N)[nH]c(=O)c21 [Compound 27, 2-Amino-9-((2R,3S,4S,5R)-4-fluoro-3-hydroxy-5-(hydroxymethyl)tetrahydrofuran-2-yl)-7-(prop-2-yn-1-yl)-7,9-dihydro-1H-purine-6,8-dione] | 376 | less than or equal to 40 μM and 23 μM | < 100 | Systemic delivery by prodrugs compared with loxoribine [2]: substantially greater than loxoribine |
| CCOCc1nc2c(N)nc3ccccc3c2n1CC(C)(C)O [resiquimod] |  |  |  | induction of SEAP production in the TLR8 reporter cell assay (human TLR8): Substantial induction of SEAP production |
| C#CCn1c(=O)n([C@@H]2O[C@H](CO)[C@H](O)[C@H]2O)c2nc(N)[nH]c(=O)c21 [Compound 5, 2-Amino-9-((2R,3R,4R,5R)-3,4-dihydroxy-5-(hydroxymethyl)tetrahydrofuran-2-yl)-7-(prop-2-yn-1-yl)-7,9-dihydro-1H-purine-6,8-dione] | 292 | less than or equal to 40 μM and 34 μM | < 100 | Mean tumor growth inhibition (% TGI) versus the control group ([3]; group (ii): 40 mg/kg, BID for five consecutive days): 40%; Mean tumor growth inhibition (% TGI) versus the control group ([3]; group (iii): 40 mg/kg, BID every other day): 64% |
| C=CCn1c(=O)n([C@@H]2O[C@H](CO)[C@@H](O)[C@H]2O)c2nc(N)ncc21 [7-allyl-2-amino-9-β-D-ribofuranosyl-7,9-dihydropurin-8-one] |  |  |  | % F (percent bioavailability of loxoribine administered as prodrug) [4]: 13% |
| C=CCn1c(=O)n([C@@H]2O[C@H](CO)[C@@H](O)[C@H]2O)c2nc(N)nc(OCC)c21 [7-allyl-2-amino-6-ethoxy-9-β-D-ribofuranosyl-7,9-dihydropurin-8-one] |  |  |  | % F (percent bioavailability of loxoribine administered as prodrug) [4]: 9% |
| C#CCn1c(=O)n([C@@H]2O[C@H](CO)C[C@H]2O)c2nc(N)[nH]c(=O)c21 [Compound 26, 2-Amino-9-((2R,3R,5S)-3-hydroxy-5-(hydroxymethyl)tetrahydrofuran-2-yl)-7-(prop-2-yn-1-yl)-7,9-dihydro-1H-purine-6,8-dione] | 519 | less than or equal to 40 μM and 31 μM | < 100 | Systemic delivery by prodrugs compared with loxoribine [2]: substantially greater than loxoribine |
| CC#CCn1c(=O)n([C@@H]2O[C@H](CO)[C@H](O)[C@H]2O)c2nc(N)[nH]c(=O)c21 [Compound 6, 2-Amino-7-(but-2-yn-1-yl)-9-((2R,3R,4R,5R)-3,4-dihydroxy-5-(hydroxymethyl)tetrahydrofuran-2-yl)-7,9-dihydro-1H-purine-6,8-dione] | 835 | 79 µM |  |  |
| Nc1nc2c(c(=O)[nH]1)n(CC1CC1)c(=O)n2[C@@H]1O[C@H](CO)[C@H](O)[C@H]1O [Compound 1, 2-Amino-7-(cyclopropylmethyl)-9-((2R,3R,4R,5R)-3,4-dihydroxy-5-(hydroxymethyl)tetrahydrofuran-2-yl)-7,9-dihydro-1H-purine-6,8-dione] | 188 | 66* μM |  | Systemic delivery by prodrugs compared with loxoribine [2]: substantially greater than loxoribine |
| C=CCn1c(=O)n([C@@H]2O[C@H](CO)[C@@H](O)[C@H]2O)c2nc(N)[nH]c(=O)c21 [loxoribine, reference compound] | 322 | 136* μM |  | % F (intrinsic bioavailability of loxoribine) ([4]; loxoribine administered orally as loxoribine itself): 2%^b |
| Nc1nc2c(c(=O)[nH]1)n(Cc1ccc(C(F)(F)F)cc1)c(=O)n2[C@@H]1O[C@H](CO)C[C@H]1O [Compound 35, 2-Amino-9-((2R,3R,5S)-3-hydroxy-5-(hydroxymethyl)tetrahydrofuran-2-yl)-7-(4-(trifluoromethyl)benzyl)-7,9-dihydro-1H-purine-6,8-dione] | 1160 | 79* μM |  |  |
| C#CCn1c(=O)n([C@@H]2O[C@H](CO)[C@H](F)[C@H]2O)c2nc(N)[nH]c(=O)c21 [Compound 28, 2-Amino-9-((2R,3S,4R,5R)-4-fluoro-3-hydroxy-5-(hydroxymethyl)tetrahydrofuran-2-yl)-7-(prop-2-yn-1-yl)-7,9-dihydro-1H-purine-6,8-dione] | 470 | less than or equal to 40 μM and 33 μM | < 100 |  |
| CCCCn1c(=O)n([C@@H]2O[C@H](CO)C[C@H]2O)c2nc(N)[nH]c(=O)c21 [Compound 37, 2-Amino-7-butyl-9-((2R,3R,5S)-3-hydroxy-5-(hydroxymethyl)tetrahydrofuran-2-yl)-7,9-dihydro-1H-purine-6,8-dione] | 564 | 50 µM |  |  |
